Laboratory results taken from patent US9049863B2, “Substituted (3R,4R)-4-cyan-3,4-diphenylbutanoates, method for the production thereof and use thereof as herbicides and plant growth regulators” (Bayer Intellectual Property GmbH, priority 2011, dated 2015).

How the values were obtained:
Assay type in all cases: in vivo
[1] = test system: Avena fatua; assay: Herbicidal action and crop plant compatibility, post-emergence (3.3); details: 80 g/ha, 4 weeks after the treatment
Experimental: (§1) 3.3 In further trials in the greenhouse, seeds of crop plants and seeds of harmful plants are placed in pots in sandy loam soil, covered with earth and cultivated under good growth conditions. The test plants are treated at the 2-3-leaf stage, where the compounds (I) according to the invention, formulated in the form of wettable powders (WP), are applied by spraying as aqueous suspension or emulsion at a water application rate of […] (converted) with the addition of 0.2% of wetting agent to the green parts of the plants. 4 weeks after the treatment and after the test plants have been kept in the greenhouse under optimum growth conditions, the activity of the preparations is rated visually in comparison to untreated controls in percent (%): For example, 100% activity=the plants have died, 50% herbicidal activity or damage=the plants have been reduced by 50% or the plant mass has been reduced by 50%, 0% activity=like control plants.

[2] = test system: oilseed rape; assay: as above; details: 80 g/ha, 4 weeks after the treatment
Experimental: as §1

[3] = test system: Polygonum convolvulus; assay: as above; details: 80 g/ha, 4 weeks after the treatment
Experimental: as §1

[4] = test system: wheat; assay: as above; details: 80 g/ha, 4 weeks after the treatment
Experimental: as §1

[5] = test system: Viola tricolor; assay: as above; details: 80 g/ha, 4 weeks after the treatment
Experimental: as §1

[6] = test system: Echinochloa crus-galli; assay: as above; details: 80 g/ha, 4 weeks after the treatment
Experimental: as §1

[7] = test system: Setaria viridis; assay: as above; details: 80 g/ha, 4 weeks after the treatment
Experimental: as §1

[8] = test system: Veronica persica; assay: as above; details: 80 g/ha, 4 weeks after the treatment
Experimental: as §1

[9] = test system: a plurality of harmful plants; assay: Herbicidal pre-emergence action; details: 320 g or less of active substance per hectare
Source text: Seeds of monocotyledonous and dicotyledonous weed plants and crop plants are placed in wood-fiber pots in sandy loam and covered with soil. The compounds (I) according to the invention, formulated in the form of wettable powders (WP), are then applied as aqueous suspension or emulsion at a water application rate of 600 l/ha (converted) with the addition of 0.2% of wetting agent to the surface of the covering soil.
After the treatment, the pots are placed in a greenhouse and kept under good growth conditions for the test plants. After about 3 weeks, the effect of the preparations is scored visually in comparison with untreated controls as percentages. For example, 100% activity=the plants have died, 50% herbicidal activity or damage=the plants have been reduced by 50% or the plant mass has been reduced by 50%, 0% activity=like control plants.

[10] = test system: Avena fatua; assay: Herbicidal action and crop plant compatibility, pre-emergence (3.2); details: 80 g/ha, about 4 weeks
Source text: (§2) 3.2 In further trials in the greenhouse, seeds of crop plants and seeds of harmful plants are placed in pots in sandy loam soil, covered with earth and cultivated under good growth conditions. The compounds (I) according to the invention, formulated in the form of wettable powders (WP), are then applied as aqueous suspension or emulsion at a water application rate of 300 l/ha (converted) with the addition of 0.2% of wetting agent to the surface of the covering soil. After the test plants have been kept in the greenhouse under optimum growth conditions for about 4 weeks, the activity of the preparations is rated visually in comparison to untreated controls in percent (%): For example, 100% activity=the plants have died, 50% herbicidal activity or damage=the plants have been reduced by 50% or the plant mass has been reduced by 50%, 0% activity=like control plants.

[11] = test system: Amaranthus retroflexus; assay: as above; details: 80 g/ha, about 4 weeks
Source text: as §2

[12] = test system: Polygonum convolvulus; assay: as above; details: 80 g/ha, about 4 weeks
Source text: as §2

[13] = test system: Viola tricolor; assay: as above; details: 80 g/ha, about 4 weeks
Source text: as §2

[14] = test system: Echinochloa crus-galli; assay: as above; details: 80 g/ha, about 4 weeks
Source text: as §2

[15] = test system: Alopecurus myosuroides; assay: as above; details: 80 g/ha, about 4 weeks
Source text: as §2

[16] = test system: Setaria viridis; assay: as above; details: 80 g/ha, about 4 weeks
Source text: as §2

[17] = test system: Lolium multiflorum; assay: as above; details: 80 g/ha, about 4 weeks
Source text: as §2

[18] = test system: Veronica persica; assay: as above; details: 80 g/ha, about 4 weeks
Source text: as §2

Row | Compound | herbicidal activity against Avena fatua [1] [%] | selectivity in oilseed rape (damage) [2] [%] | herbicidal activity against Polygonum convolvulus [3] [%] | selectivity in wheat (damage) [4] | herbicidal activity against Viola tricolor [5] [%] | herbicidal activity against Echinochloa crus-galli [6] [%] | herbicidal activity against Setaria virides [7] [%] | herbicidal activity against Veronica persica [8] [%] | herbicidal activity against a plurality of harmful plants [9] | herbicidal activity against Avena fatua [10] [%] | herbicidal activity against Amaranthus retroflexus [11] [%] | herbicidal activity against Polygonum convolvulus [12] [%] | herbicidal activity against Viola tricolor [13] [%] | herbicidal activity against Echinochloa crus-galli [14] [%] | herbicidal activity against Alopecurus myosuroides [15] [%] | herbicidal activity against Setaria viridis [16] [%] | herbicidal activity against Lolium multiflorum [17] [%] | herbicidal activity against Veronica persica [18] [%]
1 | CCCCOC(=O)C[C@@H](c1cccc(F)c1)[C@@H](C#N)c1ccc(F)c(F)c1 [Example 86] | 90 | 0 | 80 | up to 10% | 80 | 80 | 80 | 70 | good herbicidal activity | – | – | – | – | – | – | – | – | –
2 | COC(=O)C[C@@H](c1ccc(Cl)cc1)[C@@H](C#N)c1cccc(F)c1 [Example 1, methyl (3R,4R)-3-(4-chlorophenyl)-4-cyano-4-(3-fluorophenyl)butanoate] | – | – | – | – | – | – | – | – | good herbicidal activity | 80 to 100 | 80 to 100 | 80 to 100 | 80 to 100 | 80 to 100 | 80 to 100 | 80 to 100 | 80 to 100 | 80 to 100
